34 compounds from patent publication US7494984B2, “Substituted imidazo[1,2-a]pyrimidines as HIV viral DNA integrase inhibitors” (priority 2005, dated 2009) can be followed below.

The target of one data set is T1, HIV-integrase (Human immunodeficiency virus type 1 group M subtype B, UniProt P12497).
T1 construct: Recombinant integrase (0.26 ng) was incubated with the beads
The data set is described as follows: HIV-Integrase Inhibition Activity (SPA strand transfer assay). It is filed as biochemical. Conditions: recombinant integrase, biotin labeled substrate DNA on SPA beads, P33 labeled target DNA; read-out: Activity (IC50 class, HIV-integrase inhibition). The procedure: HIV-Integrase Inhibition Activity. To evaluate in-vitro activity against HIV-integrase, 5 pmole of biotin labeled substrate DNA was bound to 100 μg of Streptavidin coated PVT SPA beads (Amersham Pharmacia Biotech). Recombinant integrase (0.26 ng) was incubated with the beads for 90 min at 37° C. Unbound enzyme was removed by washing the complex followed by addition of inhibitors and 0.1 fmol of P33 labeled target DNA. The reaction was stopped by adding EDTA to a final concentration of 10 mM. Samples were counted in TopCountNXT (Packard) and the CPM was used as a measure of integration. The reaction condition was as described in A. Engelman and R. Craigie, J. Virol. 69, 5908-5911 (1995). The sequences of substrate and target DNA were described in Nucleic Acid Research 22,1121-1122 (1994). Activity equal to A refers to a compound having IC50=0.005 to 0.010 μM while B and C denote compounds having IC50=0.010 to 0.030 μM and IC50>0.030 μM respectively.

`COCCN1CCn2c1nc(C(=O)NCc1ccc(F)cc1-n1cncn1)c(O)c2=O` [Example 37]: at HIV-integrase, the half-maximal inhibitory concentration (IC50) was 10 to 30 nM. Take `CC(C)N1CCn2c1nc(C(=O)NCc1ccc(F)cc1-n1cncn1)c(O)c2=O` [Example 7, N-(4-Fluoro-2-(1H-1,2,4-triazol-1-yl)benzyl)-6-hydroxy-1-isopropyl-5-oxo-1,2,3,5-tetrahydroimidazo[1,2-a]pyrimidine-7-carboxamide]: on HIV-integrase, the IC50 fell in the range of 10 to 30 nM. The same measure, in the same setting: in the case of `O=C(NCc1ccc(F)cc1N1CCCC1=O)c1nc2n(c(=O)c1O)CCN2c1ccccc1` [Example 27, N-(4-Fluoro-2-(2-oxopyrrolidin-1-yl)benzyl)-6-hydroxy-5-oxo-1-phenyl-1,2,3,5-tetrahydroimidazo[1,2-a]pyrimidine-7-carboxamide] it was 10 to 30 nM; in that of `O=C(NCc1ccc(F)cc1)c1nc2n(c(=O)c1O)CCN2c1ccccc1` [Example 20, N-(4-Fluorobenzyl)-6-hydroxy-5-oxo-1-phenyl-1,2,3,5-tetrahydroimidazo[1,2-a]pyrimidine-7-carboxamide], 5 to 10 nM.

Turning to `Cc1cc(CNC(=O)c2nc3n(c(=O)c2O)CCN3C2CCCCC2)ccc1F` [Example 33], the IC50 on HIV-integrase fell in the range of 5 to 10 nM. On the same count and under the same terms, in the case of `CNC(=O)c1cc(F)ccc1CNC(=O)c1nc2n(c(=O)c1O)CCN2c1ccccc1` [Example 22, N-(4-Fluoro-2-(methylcarbamoyl)benzyl)-6-hydroxy-5-oxo-1-phenyl-1,2,3,5-tetrahydroimidazo[1,2-a]pyrimidine-7-carboxamide] it was 10 to 30 nM. For `CN1CCn2c1nc(C(=O)NCc1ccc(F)cc1)c(O)c2=O` [Example 1, N-(4Fluorobenzyl)-6-hydroxy-1-methyl-5-oxo-1,2,3,5-tetrahydroimidazo[1,2-a]pyrimidine-7-carboxamide], the melting point came to 212 °C. On HIV-integrase, the IC50 lay within 10 to 30 nM. The matching figures for `Cc1cc(CNC(=O)c2nc3n(c(=O)c2O)CCN3C)ccc1F` [Example 2, N-(4-Fluoro-3-methylbenzyl)-6-hydroxy-1-methyl-5-oxo-1,2,3,5-tetrahydroimidazo[1,2-a]pyrimidine-7-carboxamide]: 187 to 189 °C and 10 to 30 nM. In the case of `CC(C)N1CCn2c1nc(C(=O)NCc1ccc(F)cc1S(=O)(=O)N(C)C)c(O)c2=O` [Example 8, N-(4-Fluoro-2-(N,N-dimethylsulfamoyl)benzyl)-6-hydroxy-1-isopropyl-5-oxo-1,2,3,5-tetrahydroimidazo[1,2-a]pyrimidine-7-carboxamide], on HIV-integrase, the IC50 was 5 to 10 nM.

Take `CNC(=O)c1cc(F)ccc1CNC(=O)c1nc2n(c(=O)c1O)CCN2C` [Example 3, N-(4-Fluoro-2-(methylcarbamoyl)benzyl)-6-hydroxy-1-methyl-5-oxo-1,2,3,5-tetrahydroimidazo[1,2-a]pyrimidine-7-carboxamide]: the IC50 at HIV-integrase lay in the range of 10 to 30 nM. Regarding `COCCN1CCn2c1nc(C(=O)NCc1ccc(F)cc1)c(O)c2=O` [Example 29, N-(4-Fluorobenzyl)-6-hydroxy-1-(2-methoxyethyl)-5-oxo-1,2,3,5-tetrahydroimidazo[1,2-a]pyrimidine-7-carboxamide], the melting point turned out to be 166 °C. The 50% inhibitory concentration (IC50) at HIV-integrase was 10 to 30 nM. In the case of `CCCCN1CCn2c1nc(C(=O)NCc1ccc(F)cc1S(=O)(=O)N(C)C)c(O)c2=O` [Example 14, N-(4-Fluoro-2-(N,N-dimethylsulfamoyl)benzyl)-1-butyl-6-hydroxy-5-oxo-1,2,3,5-tetrahydroimidazo[1,2-a]pyrimidine-7-carboxamide], the half-maximal inhibitory concentration (IC50) at HIV-integrase lay within 10 to 30 nM. The same measure, in the same setting: the result for `CN(C)S(=O)(=O)c1cc(F)ccc1CNC(=O)c1nc2n(c(=O)c1O)CCN2C1CCCCC1` [Example 35] reads 10 to 30 nM; that for `O=C(NCc1ccc(F)cc1N1CCC1=O)c1nc2n(c(=O)c1O)CCN2c1ccccc1` [Example 28, N-(4-Fluoro-2-(2-oxoazetidin-1-yl)benzyl)-6-hydroxy-5-oxo-1-phenyl-1,2,3,5-tetrahydroimidazo[1,2-a]pyrimidine-7-carboxamide], 5 to 10 nM. On the same count and under the same terms, in the case of `CNC(=O)c1cc(F)ccc1CNC(=O)c1nc2n(c(=O)c1O)CCN2CCOC` [Example 36] it was 10 to 30 nM; in that of `O=C(NCc1ccc(F)cc1-n1cncn1)c1nc2n(c(=O)c1O)CCN2c1ccccc1` [Example 23, N-(4-Fluoro-2-(1H-1,2,4-triazol-1-yl)benzyl)-6-hydroxy-5-oxo-1-phenyl-1,2,3,5-tetrahydroimidazo[1,2-a]pyrimidine-7-carboxamide], 5 to 10 nM. The same measure, in the same setting: the result for `Cc1ncn(-c2cc(F)ccc2CNC(=O)c2nc3n(c(=O)c2O)CCN3C(C)C)n1` [Example 9, N-(4-Fluoro-2-(3-methyl-1H-1,2,4-triazol-1-yl)benzyl)-6-hydroxy-1-isopropyl-5-oxo-1,2,3,5-tetrahydroimidazo[1,2-a]pyrimidine-7-carboxamide] reads 10 to 30 nM; that for `Cc1cc(CNC(=O)c2nc3n(c(=O)c2O)CCN3C(C)C)ccc1F` [Example 5, N-(4-Fluoro-3-methylbenzyl)-6-hydroxy-1-isopropyl-5-oxo-1,2,3,5-tetrahydroimidazo[1,2-a]pyrimidine-7-carboxamide], 10 to 30 nM; that for `Cc1cc(CNC(=O)c2nc3n(c(=O)c2O)CCN3c2ccccc2)ccc1F` [Example 21, N-(4-Fluoro-3-methylbenzyl)-6-hydroxy-5-oxo-1-phenyl-1,2,3,5-tetrahydroimidazo[1,2-a]pyrimidine-7-carboxamide], 5 to 10 nM. As for `COCCN1CCn2c1nc(C(=O)NCc1ccc(F)cc1S(=O)(=O)N(C)C)c(O)c2=O` [Example 38], the concentration for half-maximal inhibition (IC50) at HIV-integrase was more than 30 nM. Take `O=C(NCc1ccc(F)cc1-n1cncn1)c1nc2n(c(=O)c1O)CCN2Cc1ccccc1` [Example 19, N-(4-Fluoro-2-(1H-1,2,4-triazol-1-yl)benzyl)-1-benzyl-6-hydroxy-5-oxo-1,2,3,5-tetrahydroimidazo[1,2-a]pyrimidine-7-carboxamide]: the melting point was 242 °C (dec.). The IC50 at HIV-integrase was 10 to 30 nM. Turning to `CCCCN1CCn2c1nc(C(=O)NCc1ccc(F)c(C)c1)c(O)c2=O` [Example 12, N-(4-Fluoro-3-methylbenzyl)-1-butyl-6-hydroxy-5-oxo-1,2,3,5-tetrahydroimidazo[1,2-a]pyrimidine-7-carboxamide], the IC50 on HIV-integrase fell in the range of 10 to 30 nM. `O=C(NCc1ccc(F)cc1)c1nc2n(c(=O)c1O)CCN2CCO` [Example 30, N-(4-Fluorobenzyl)-6-hydroxy-1-(2-hydroxyethyl)-5-oxo-1,2,3,5-tetrahydroimidazo[1,2-a]pyrimidine-7-carboxamide]: the melting point was determined as 203 °C. Besides, the 50% inhibitory concentration (IC50) on HIV-integrase is 10 to 30 nM. For `Cc1cc(CNC(=O)c2nc3n(c(=O)c2O)CCN3Cc2ccccc2)ccc1F` [Example 17, N-(4-Fluoro-3-methylbenzyl)-1-benzyl-6-hydroxy-5-oxo-1,2,3,5-tetrahydroimidazo[1,2-a]pyrimidine-7-carboxamide], the half-maximal inhibitory concentration (IC50) at HIV-integrase lay within 10 to 30 nM. On the same count and under the same terms, the result for `O=C(NCc1ccc(F)cc1)c1nc2n(c(=O)c1O)CCN2C1CCCCC1` [Example 32] reads 5 to 10 nM; that for `CCCCN1CCn2c1nc(C(=O)NCc1ccc(F)cc1)c(O)c2=O` [Example 11, N-(4-Fluorobenzyl)-1-butyl-6-hydroxy-5-oxo-1,2,3,5-tetrahydroimidazo[1,2-a]pyrimidine-7-carboxamide], 5 to 10 nM; that for `O=C(NCc1ccc(F)cc1-n1cncn1)c1nc2n(c(=O)c1O)CCN2C1CCCCC1` [Example 34], 5 to 10 nM. Same read-out and setting: in the case of `CN(C)S(=O)(=O)c1cc(F)ccc1CNC(=O)c1nc2n(c(=O)c1O)CCN2c1ccccc1` [Example 26, N-(4-Fluoro-2-(N,N-dimethylsulfamoyl)benzyl)-6-hydroxy-5-oxo-1-phenyl-1,2,3,5-tetrahydroimidazo[1,2-a]pyrimidine-7-carboxamide] it was 10 to 30 nM; in that of `CC(C)N1CCn2c1nc(C(=O)NCc1ccc(F)cc1)c(O)c2=O` [Example 4, N-(4-Fluorobenzyl)-6-hydroxy-1-isopropyl-5-oxo-1,2,3,5-tetrahydroimidazo[1,2-a]pyrimidine-7-carboxamide], 10 to 30 nM. Still for that read-out and setting: the result for `COCCN1CCn2c1nc(C(=O)NCc1ccc(F)cc1-n1cnc(C)n1)c(O)c2=O` [Example 39] reads more than 30 nM. For `CS(=O)(=O)c1cc(F)ccc1CNC(=O)c1nc2n(c(=O)c1O)CCN2c1ccccc1` [Example 40], the IC50 on HIV-integrase was 5 to 10 nM. Same read-out and setting: in the case of `Cc1ncn(-c2cc(F)ccc2CNC(=O)c2nc3n(c(=O)c2O)CCN3c2ccccc2)n1` [Example 24, N-(4-Fluoro-2-(3-methyl-1H-1,2,4-triazol-1-yl)benzyl)-6-hydroxy-5-oxo-1-phenyl-1,2,3,5-tetrahydroimidazo[1,2-a]pyrimidine-7-carboxamide] it was 5 to 10 nM; in that of `CCCCN1CCn2c1nc(C(=O)NCc1ccc(F)cc1-n1cncn1)c(O)c2=O` [Example 41], 10 to 30 nM; in that of `Cc1ncnn1-c1cc(F)ccc1CNC(=O)c1nc2n(c(=O)c1O)CCN2c1ccccc1` [Example 25, N-(4-Fluoro-2-(5-methyl-1H-1,2,4-triazol-1-yl)benzyl)-6-hydroxy-5-oxo-1-phenyl-1,2,3,5-tetrahydroimidazo[1,2-a]pyrimidine-7-carboxamide], 10 to 30 nM.

For orientation: IC50 means the midpoint of a concentration-inhibition curve. In general, melting point refers to the temperature of the solid-liquid transition.
